According to patent US7544497B2, “Compositions for manipulating the lifespan and stress response of cells and organisms” (President and Fellows of Harvard College, priority 2003, dated 2009):

Tests used:
[1] = molecular target: T1, recombinant human SIRT1 (Homo sapiens, UniProt Q96EB6); experiment: SIRT1 fluorescent deacetylation assay (p53-382 acetylated peptide substrate); format: biochemical; details: 100 μM resveratrol
T1 sequence (Q96EB6 1-747): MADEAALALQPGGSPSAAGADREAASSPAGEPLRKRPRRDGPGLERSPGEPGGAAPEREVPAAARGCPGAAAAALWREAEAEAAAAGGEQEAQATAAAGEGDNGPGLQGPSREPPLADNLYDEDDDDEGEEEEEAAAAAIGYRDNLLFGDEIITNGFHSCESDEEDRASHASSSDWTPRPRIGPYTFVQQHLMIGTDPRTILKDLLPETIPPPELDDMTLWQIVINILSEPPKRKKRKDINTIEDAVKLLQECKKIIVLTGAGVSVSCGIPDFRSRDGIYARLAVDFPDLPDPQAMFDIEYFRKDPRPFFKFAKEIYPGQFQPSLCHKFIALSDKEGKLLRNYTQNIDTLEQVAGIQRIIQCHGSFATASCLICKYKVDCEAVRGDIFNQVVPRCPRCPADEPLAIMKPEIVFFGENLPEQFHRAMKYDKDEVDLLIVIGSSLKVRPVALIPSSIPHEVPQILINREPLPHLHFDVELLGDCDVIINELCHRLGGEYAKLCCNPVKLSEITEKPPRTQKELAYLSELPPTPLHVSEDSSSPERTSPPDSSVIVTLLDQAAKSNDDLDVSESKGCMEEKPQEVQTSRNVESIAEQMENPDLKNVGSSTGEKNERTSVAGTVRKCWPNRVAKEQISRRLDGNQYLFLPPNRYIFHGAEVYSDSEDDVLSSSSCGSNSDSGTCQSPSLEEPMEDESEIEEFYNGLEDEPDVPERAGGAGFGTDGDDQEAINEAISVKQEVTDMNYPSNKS
Source text: To identify compounds that modulate SIRT1 activity, we screened a number of small molecule libraries using a fluorescent deacetylation assay in 96-well plates^26. The substrate used in the assay was a fluorogenic peptide based on the sequence encompassing the p53-K382 acetylation site, a known target of SIRT1 in vivo^20,21,27. This substrate was preferred over a variety of other fluorogenic peptide substrates that were based on other known HDAC targets (FIG. 5). The small molecule libraries included analogues of nicotinamide, ε-acetyl lysine, NAD^+, nucleotides, nucleotide analogues and purinergic ligands. From the initial screen, several sirtuin inhibitors were found (Supplementary Table 7). However, the most striking outcome was the identification of two compounds, quercetin and piceatannol, that stimulated SIRT1 activity five and eight-fold, respectively (Table 1). Both quercetin and piceatannol have been previously identified as protein kinase inhibitors^28,29.
His6-tagged recombinant SIRT1 and GST-tagged recombinant Sir2 were prepared as previously described^26. From 0.1 to 1 μg of SIRT1 and 1.5 μg of Sir2 were used per deacetylation assay (in 50 μl total reaction) as previously described^26. SIRT1 assays and certain of those for Sir2 employed the p53-382 acetylated substrate (‘Fluor de Lys-SIRT1’, BIOMOL) rather than FdL.
Themed compound libraries (BIOMOL) were used for primary and secondary screening. […] For water soluble compounds and negative controls, 1% v/v DMSO was added to the assay. […] HeLa cells were grown and the cellular deacetylation assays were performed and read, as above, but in full-volume 96-well microplates (Corning Costar 3595). Unless otherwise indicated all initial rate measurements were means of three or more replicates, obtained with single incubation times, at which point 5% or less of the substrate initially present had been deacetylated. Calculation of net fluorescence increases included subtraction of a blank value, which in the case of Sir2 was obtained by omitting the enzyme from the reaction and in the case of SIRT1 by adding an inhibitor (200 μM suramin or 1 mM nicotinamide) to the reaction prior to the acetylated substrate. […] All error bars represent the standard error of the mean.
All SIRT1 rate measurements used in the calculation of “Ratio to Control Rate” were obtained with 25 μM NAD^+ and 25 μM p53-382 acetylated peptide substrate were performed as described above and in K. T. Howitz et al. Nature (2003) 425: 191. All ratio data were calculated from experiments in which the total deacetylation in the control reaction was 0.25-1.25 μM peptide or 1-5% of the initial concentration of acetylated peptide.

[2] = tested on: rDNA silencing; experiment: Ribosomal DNA silencing assay (URA3 reporter); format: cell-based, S. cerevisiae
Experimental: Ribosomal DNA silencing assays using the URA3 reporters were performed as previously described^26. Ribosomal DNA recombination frequencies were determined by plating W303AR cells^37 on YPD medium with low adenine/histidine and counting the fraction of half-red sectored colonies using Bio-Rad Quantity One software as previously described^35. At least 6000 cells were analyzed per experiment and all experiments were performed in triplicate. All strains were pre-grown for 15 hours with the relevant compound prior to plating.

[3] = tested on: lysine 382 of p53 in U2OS osteosarcoma cells; experiment: p53 Ac-K382 Western blot after UV radiation; format: cell-based, human

Q: For `Oc1ccc(/C=C/c2cc(O)cc(O)c2)cc1` [Resveratrol, 3,5,4′-Trihydroxy-trans-stilbene], which “Vmax (+resveratrol), NAD+ varied” value ([1]; 1 mM p53-382 acetylated peptide, control 1863) is on record?
A: The value was 1749 AFU/min.

Q: What about the “Vmax (+resveratrol), p53-382 acetylated peptide varied” value ([1]; 3 mM NAD+, control 1107) of the same compound?
A: The value was 926 AFU/min.

Q: And the “effect on rDNA silencing” value [2]?
A: Its value is “only minor effects”.

Q: And the “level of Ac-K382 compared to untreated cells” value ([3]; 0.5 μM resveratrol, 4 hours pre-treatment, UV radiation)?
A: The value was “marked decrease”.

Q: And the “level of Ac-K382 at higher concentrations” value ([3]; >50 μM resveratrol)?
A: The value was “the effect was reversed”.
